The results in this text go back to patent publication US8697747B2, “Enhancing coagulation or reducing fibrinolysis” (THe UAB Research Foundation, priority 2009, dated 2014).

One series concerns PAI-1 deficient plasma. In words: CLSM thrombelastography with tPA, PAI-1 deficient plasma. In kind it is biochemical, human. As to conditions: 100 μM CORM-2, tPA 100 IU/mL, median, n=8. On the procedure:
Pooled normal plasma (George King Bio-Medical, Overland Park, Kans.) anticoagulated with sodium citrate was utilized for experimentation. […] Factor XIII (FXIII) deficient plasma anticoagulated with sodium citrate was also obtained from the same vendor.
Plasma Sample Composition. The final volume for all subsequently described plasma sample mixtures was 359.4 μL. Sample composition consisted of 316 μL of plasma; 10 μL of tissue factor (0.1% final concentration in 0.9% NaCl; Diagnostica Stago, Asnieres, France), 3.6 μL of dimethyl sulfoxide (DMSO) or DMSO with CORM-2 (Sigma-Aldrich, St. Louis, Mo.) or DMSO with inactivated CORM-2 (iCORM-2), 10 μL of tissue-type plasminogen activator (tPA, 580 U/μg, Genentech, Inc., San Francisco, Calif.) diluted with 10 mM potassium phosphate buffer (pH 7.4) for a final activity of 100 IU/mL, and 20 μL of 200 mM CaCl2. […] This concentration of CORM-2 was chosen because the concentration of CO released would be expected to be in the mid to lower ranges used in previously reported ex vivo, in vitro, and cell-based experiments (Motterlini et al. 2002; Megias et al. 2007; Chlopicki et al. 2006; Dong et al. 2008). […] (Motterlini et al. 2005). While CORM-2 decays slowly in DMSO, DMSO was added to the dry compound just prior to placement into the plasma mixture. The specific series of experiments are subsequently presented.
Assessment of the Effects of CORM-2 on CLSM Parameters in FXIII, PAI-1, TAFI and α2-antiplasmin Deficient Plasmas. These experiments were performed to elucidate the roles played by antifibrinolytic enzymes during CORM-2 mediated modulation of fibrinolysis. Samples of the various deficient plasmas were exposed to 0 or 100 μM of CORM-2 (n=8 per condition). Samples underwent CLSM analyses as subsequently described.
Clot Lifespan Model Analyses. As described in Example 1, plasma sample mixtures were placed in a disposable cup in a computer-controlled THROMBELASTOGRAPH® hemostasis system (Model 5000, Haemoscope Corp., Niles, Ill.), with addition of CaCl2 as the last step to initiate clotting. Data were collected until clot lysis time occurred. […] As this model involves complete fibrinolysis, TTG is equivalent to ACL, so ACL was not presented as it provides no additional information.
Statistical Analyses. Data are presented as median (1st, 3rd quartiles). […] Nonlinear and linear analyses and curve fitting of the various CORM-2 concentrations effects on CLSM variables were performed with commercially available software (SigmaPlot 11.0, Systat Software, Inc., San Jose, Calif.). Analyses of the effects of CORM-2 and iCORM-2 on CLSM variables in normal plasma were conducted with Kruskal-Wallis one way analysis of variance on ranks, whereas Mann-Whitney rank sum tests were used to assess the effects of CORM-2 on CLSM variables in the various immunodepleted/congenitally deficient plasma types (SigmaStat 3.1, Systat Software, Inc., San Jose, Calif.). Graphical representation of the data was generated with commercially available software (SigmaPlot 11.0, Systat Software, Inc., San Jose, Calif.; CorelDRAW 12.0, Corel Corporation, Ottawa, Ontario, Canada; Origin 7.5, OriginLab Corp., Northampton, Mass.). A P value of <0.05 was considered significant.

The conditions of series [1]: pure (43.5 mg/mL) or up to three-fold diluted fibrinogen solution. An excerpt: Exposure of purified fibrinogen to CORM-2. Experiments with purified fibrinogen pre-exposure to CORM-2 were to be performed in a similar fashion as that described with prothrombin. […] Therefore, a concentration-response relationship between various fibrinogen concentrations with or without the addition of CORM-2 was generated as outlined subsequently.

Regarding `[C-]#[O+].[C-]#[O+].[C-]#[O+].[C-]#[O+].[C-]#[O+].[C-]#[O+].[Cl][Ru][Cl].[Cl][Ru][Cl]` [CORM-2, tricarbonyldichlororuthenium (II) dimer], in the series on PAI-1 deficient plasma, the “CGT (clot growth time)” value was found to be 500 s, the “CLS (clot lifespan)” value amounted to 1565 s, the “CLT (clot lysis time)” value came out at 1070 s and the “MRL (maximum rate of lysis)” value is −2.2 -dynes/cm^2/sec. In addition, in the series on PAI-1 deficient plasma, the “MRTG (maximum rate of thrombus generation)” value is given as 9.4 dynes/cm^2/sec, the “TMRL (time to maximum rate of lysis)” value amounted to 750 s, the “TMRTG (time to maximum rate of thrombus generation)” value worked out at 160 s and the “TTG (total thrombus generation)” value is given as 228 dynes/cm^2. In addition, the “solubility of CORM-2 in DMSO added to purified fibrinogen solution” value in series [1] is reported as “not soluble”.
